Experimental data published in patent US7786141B2 (Vertex Pharmaceuticals Incorporated, priority 2004, dated 2010).

How the values were obtained:
M1 muscarinic receptor = molecular target: T1, M1 muscarinic receptor (Homo sapiens, UniProt P11229); test: Functional mobilization of intracellular calcium (FLIPR) in M1-CHO cells; assay type: cell-based; settings: Table 4; for Emax: 100% efficacy is the maximum response obtained with the Carbachol control; for M1 Activity: modulating M1 receptor
T1 construct: expressed in transfected cells; host or cells: CHO (M1-CHO)
T1 sequence (P11229 1-460): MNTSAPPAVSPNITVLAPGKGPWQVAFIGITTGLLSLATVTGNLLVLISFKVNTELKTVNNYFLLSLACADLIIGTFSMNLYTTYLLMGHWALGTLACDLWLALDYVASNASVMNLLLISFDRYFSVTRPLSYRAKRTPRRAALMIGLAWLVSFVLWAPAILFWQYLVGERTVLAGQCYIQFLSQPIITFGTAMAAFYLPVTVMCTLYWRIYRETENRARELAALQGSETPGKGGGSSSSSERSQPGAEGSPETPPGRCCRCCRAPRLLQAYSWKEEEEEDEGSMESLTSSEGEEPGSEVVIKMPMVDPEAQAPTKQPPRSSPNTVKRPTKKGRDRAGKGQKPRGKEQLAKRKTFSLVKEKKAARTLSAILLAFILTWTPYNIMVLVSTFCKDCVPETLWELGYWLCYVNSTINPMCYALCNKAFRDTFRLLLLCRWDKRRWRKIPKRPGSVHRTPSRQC
How it was run: (§1)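 CHO cells stably expressing human M1 or M4 receptor were loaded with Fluo-3 AM (or Calcium 3 dye) in Hepes-buffered saline, pH 7.4, with 1 mM probenecid, 0.5% final DMSO. Agonist mode: compound added directly; antagonist mode: 15 min preincubation before carbachol at EC80. FLIPR fluorescence recorded 60 sec.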

M4 muscarinic receptor = molecular target: T2, M4 muscarinic receptor (Homo sapiens, UniProt P08173); test: Functional mobilization of intracellular calcium (FLIPR) in M4-CHO cells; assay type: cell-based; settings: Table 4; for Emax: 100% efficacy is the maximum response obtained with the Carbachol control; for M4 Activity: modulating M4 receptor
T2 construct: expressed in transfected cells; host or cells: CHO (M4-CHO)
T2 sequence (P08173 1-479): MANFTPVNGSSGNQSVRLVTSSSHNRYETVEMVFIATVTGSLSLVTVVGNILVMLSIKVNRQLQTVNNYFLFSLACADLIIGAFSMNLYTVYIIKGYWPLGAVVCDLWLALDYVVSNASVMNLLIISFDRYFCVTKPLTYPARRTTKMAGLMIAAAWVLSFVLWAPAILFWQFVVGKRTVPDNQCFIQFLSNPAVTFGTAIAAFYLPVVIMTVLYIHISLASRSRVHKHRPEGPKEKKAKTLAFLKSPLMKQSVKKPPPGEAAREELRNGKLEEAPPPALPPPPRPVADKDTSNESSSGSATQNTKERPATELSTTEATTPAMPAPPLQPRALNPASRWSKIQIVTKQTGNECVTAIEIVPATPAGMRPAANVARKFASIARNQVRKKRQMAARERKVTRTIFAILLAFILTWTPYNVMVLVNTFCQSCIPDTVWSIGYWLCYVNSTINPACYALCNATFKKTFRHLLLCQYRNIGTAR
How it was run: as §1

SMILES	Emax (M1 muscarinic receptor) [%]	M1 Activity (M1 muscarinic receptor)	Emax (M4 muscarinic receptor) [%]	M4 Activity (M4 muscarinic receptor)
CC#CCOC(=O)N1CC[C@H](CN2CCC3(CC2)CN(C(=O)N(C)C)c2ccc(F)cc23)C1 [compound 761]	25 to 100	xxx (activity was measured to be less than 2.0 μM)	25 to 100	xxx (activity was measured to be less than 2.0 μM)
Cc1ncc(N2CCC(N3CCC4(CC3)CN(C(=O)N(C)C)c3ccc(F)cc34)CC2)nc1C [compound 762]	25 to 100	xxx (activity was measured to be less than 2.0 μM)	25 to 100	xxx (activity was measured to be less than 2.0 μM)
CC(=O)N[C@H]1CCC2(CCN(CCC3=C(C)CCCC3(C)C)CC2)c2ccccc21 [compound 764]	25 to 100	xxx (activity was measured to be less than 2.0 μM)	< 25	xxx (activity was measured to be less than 2.0 μM)
CCOC(=O)N1CCC(N2CCC3(CC(=O)c4cc(F)ccc43)C2)CC1 (stereo not drawn) [compound 765]	25 to 100	x (activity was measured to be greater than 5.0 μM)	< 25	x (activity was measured to be greater than 5.0 μM)
O=C1CCCN1[C@H]1CCC2(CCN([C@@H]3CC4CC[C@H]3C4)CC2)c2ccccc21 [compound 766]	25 to 100	xxx (activity was measured to be less than 2.0 μM)	25 to 100	xxx (activity was measured to be less than 2.0 μM)
CN(C)C(=O)N1CC2(CCN(C3CCN(C(=O)c4ccc(F)cc4)CC3)CC2)c2cc(F)ccc21 [compound 767]	25 to 100	x (activity was measured to be greater than 5.0 μM)	< 25	x (activity was measured to be greater than 5.0 μM)
CCOC(=O)N1CCC(N2CCC3(CC2)CN(C(C)=O)c2c(-c4ccc(C)cc4)cccc23)CC1 [compound 768]	25 to 100	x (activity was measured to be greater than 5.0 μM)	< 25	x (activity was measured to be greater than 5.0 μM)
CCOC(=O)N1CCC(N2CCC3(CC2)CN(C(C)=O)c2ccc(Br)cc23)CC1 [compound 769]	25 to 100	xxx (activity was measured to be less than 2.0 μM)	25 to 100	xxx (activity was measured to be less than 2.0 μM)
COc1cccc(C(=O)N2CCC(N3CCC4(CC3)CN(C(=O)N(C)C)c3ccc(F)cc34)CC2)c1 [compound 770]	25 to 100	xxx (activity was measured to be less than 2.0 μM)	< 25	xx (activity was measured to be between 2.0 μM and 5.0 μM)
COC(=O)N1CCC(N2CCC3(CC2)CN(C(C)=O)c2ccc(F)cc23)C1 (stereo not drawn) [compound 771]	< 25	x (activity was measured to be greater than 5.0 μM)	< 25	x (activity was measured to be greater than 5.0 μM)
CN(C)C(=O)N1CC2(CCN(C3CCCN(C(=O)OCCF)CC3)CC2)c2cc(F)ccc21 (stereo not drawn) [compound 772]	25 to 100	xxx (activity was measured to be less than 2.0 μM)	25 to 100	xxx (activity was measured to be less than 2.0 μM)
CS(=O)(=O)N[C@H]1CCC2(CCN(CC3CCCCC3)CC2)c2ccccc21 [compound 773]	25 to 100	xxx (activity was measured to be less than 2.0 μM)	25 to 100	xxx (activity was measured to be less than 2.0 μM)
CCOC(=O)N1CCC(N2CCC3(CC2)C[C@H](NC(C)=O)c2cc(OC)c(OC)cc23)CC1 [compound 774]	25 to 100	x (activity was measured to be greater than 5.0 μM)	25 to 100	x (activity was measured to be greater than 5.0 μM)
C#CCOC(=O)N1CC[C@@H](CN2CCC3(CC2)CN(C(=O)N(C)C)c2ccc(F)cc23)C1 [compound 775]	25 to 100	xxx (activity was measured to be less than 2.0 μM)	25 to 100	xxx (activity was measured to be less than 2.0 μM)
CC#CCOC(=O)N1C2CCC1CC(N1CCC3(CC1)CN(C(C)=O)c1ccccc13)C2 (stereo not drawn) [compound 777]	25 to 100	xxx (activity was measured to be less than 2.0 μM)	25 to 100	xxx (activity was measured to be less than 2.0 μM)
O=C(N[C@H]1CC2(CCN(C3CCCCC3)CC2)c2ccccc21)C1CC1 [compound 779]	25 to 100	xx (activity was measured to be between 2.0 μM and 5.0 μM)	< 25	xxx (activity was measured to be less than 2.0 μM)
CC(=O)N[C@H]1CC2(CCN(CC(=O)N3CCC(=O)N3)CC2)c2ccccc21 [compound 780]	< 25	x (activity was measured to be greater than 5.0 μM)	< 25	x (activity was measured to be greater than 5.0 μM)
CN(C)C(=O)N1CC2(CCN(C3CCN(C(=O)C4COc5ccccc5O4)CC3)CC2)c2cc(F)ccc21 (stereo not drawn) [compound 781]	25 to 100	x (activity was measured to be greater than 5.0 μM)	< 25	x (activity was measured to be greater than 5.0 μM)
CC(=O)N[C@H]1CC2(CCN(CC(=O)N3C[C@@H](C)O[C@@H](C)C3)CC2)c2ccccc21 [compound 782]	< 25	x (activity was measured to be greater than 5.0 μM)	< 25	x (activity was measured to be greater than 5.0 μM)
CCOC(=O)N1CCC(N2CCC3(CC2)CC(=O)c2cc(C)ccc23)CC1 [compound 783]	25 to 100	xxx (activity was measured to be less than 2.0 μM)	25 to 100	xx (activity was measured to be between 2.0 μM and 5.0 μM)
CC(=O)N[C@H]1CC2(CCN(CCC3=C(C)CCCC3(C)C)CC2)c2ccccc21 [compound 784]	< 25	x (activity was measured to be greater than 5.0 μM)	< 25	x (activity was measured to be greater than 5.0 μM)
CCOC(=O)N1CCC(CN2CCC3(CC2)CN(C(C)=O)c2c(C)cccc23)CC1 [compound 785]	25 to 100	xx (activity was measured to be between 2.0 μM and 5.0 μM)	25 to 100	xxx (activity was measured to be less than 2.0 μM)
O=C1CC2(CCN([C@@H]3C[C@@H]4CC[C@@H]3C4)CC2)c2cc(Cl)ccc21 [compound 787]	25 to 100	xxx (activity was measured to be less than 2.0 μM)	25 to 100	xxx (activity was measured to be less than 2.0 μM)
Clc1ccc2c(c1)C1(CCN(CC3CC4C=CC3C4)CC1)C[C@@H]2NCC1CC2C=CC1C2 (stereo partly drawn) [compound 788]	25 to 100	xx (activity was measured to be between 2.0 μM and 5.0 μM)	25 to 100	xx (activity was measured to be between 2.0 μM and 5.0 μM)
CN(C)C(=O)N[C@H]1CCC2(CCN([C@@H]3C[C@@H]4CC[C@H]3C4)CC2)c2ccccc21 [compound 789]	25 to 100	x (activity was measured to be greater than 5.0 μM)	25 to 100	x (activity was measured to be greater than 5.0 μM)
CN(C)C(=O)N1CC2(CCN(C3CCN(c4ncccn4)CC3)CC2)c2cc(F)ccc21 [compound 790]	25 to 100	xx (activity was measured to be between 2.0 μM and 5.0 μM)	25 to 100	xxx (activity was measured to be less than 2.0 μM)
CN(C)C(=O)N1CC2(CCN(C3CCN(C(=O)c4ccncc4)CC3)CC2)c2cc(F)ccc21 [compound 791]	25 to 100	xx (activity was measured to be between 2.0 μM and 5.0 μM)	< 25	x (activity was measured to be greater than 5.0 μM)
